{"source": "paper doi:10.1101/2025.11.20.689572v1", "about": "(biorxiv, 2025)", "key": {"H2": {"target": "T1, H2 (Homo sapiens, UniProt P25021)", "T1 construct": "gene HRH2; full-length receptor; HEK293 cell membranes", "T1 sequence (P25021 whole entry)": "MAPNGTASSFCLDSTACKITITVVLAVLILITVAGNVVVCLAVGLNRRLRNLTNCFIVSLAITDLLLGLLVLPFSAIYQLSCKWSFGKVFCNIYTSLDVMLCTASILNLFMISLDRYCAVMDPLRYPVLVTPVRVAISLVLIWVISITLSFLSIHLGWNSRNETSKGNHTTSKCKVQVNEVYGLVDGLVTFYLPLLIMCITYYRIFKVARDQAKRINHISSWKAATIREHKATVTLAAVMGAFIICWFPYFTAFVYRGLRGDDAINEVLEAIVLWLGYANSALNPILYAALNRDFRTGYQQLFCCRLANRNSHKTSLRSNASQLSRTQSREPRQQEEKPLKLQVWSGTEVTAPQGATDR", "assay": "competitive radioligand binding, HEK293 membranes", "excerpt": "competitive radioligand binding, HEK293 membranes on H2"}, "α2C": {"target": "T2, α2C (Homo sapiens, UniProt P18825)", "T2 construct": "gene ADRA2C; full-length receptor; HEK293 cell membranes", "T2 sequence (P18825 whole entry)": "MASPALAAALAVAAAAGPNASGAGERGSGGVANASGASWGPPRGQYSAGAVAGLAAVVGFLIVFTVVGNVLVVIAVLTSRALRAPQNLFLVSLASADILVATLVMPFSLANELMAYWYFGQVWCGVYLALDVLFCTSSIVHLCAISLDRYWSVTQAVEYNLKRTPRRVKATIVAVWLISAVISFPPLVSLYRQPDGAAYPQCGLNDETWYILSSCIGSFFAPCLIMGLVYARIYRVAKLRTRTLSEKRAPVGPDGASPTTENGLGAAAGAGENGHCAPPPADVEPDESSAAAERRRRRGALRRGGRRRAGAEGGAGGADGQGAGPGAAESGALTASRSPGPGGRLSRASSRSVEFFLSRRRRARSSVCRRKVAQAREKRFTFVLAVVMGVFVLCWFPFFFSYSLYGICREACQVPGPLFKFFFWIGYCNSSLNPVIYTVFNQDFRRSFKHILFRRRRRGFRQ", "assay": "competitive radioligand binding, HEK293 membranes", "excerpt": "competitive radioligand binding, HEK293 membranes on α2C"}, "CHRM1": {"target": "T3, CHRM1 (Homo sapiens, UniProt P11229)", "T3 sequence (P11229 1-460)": "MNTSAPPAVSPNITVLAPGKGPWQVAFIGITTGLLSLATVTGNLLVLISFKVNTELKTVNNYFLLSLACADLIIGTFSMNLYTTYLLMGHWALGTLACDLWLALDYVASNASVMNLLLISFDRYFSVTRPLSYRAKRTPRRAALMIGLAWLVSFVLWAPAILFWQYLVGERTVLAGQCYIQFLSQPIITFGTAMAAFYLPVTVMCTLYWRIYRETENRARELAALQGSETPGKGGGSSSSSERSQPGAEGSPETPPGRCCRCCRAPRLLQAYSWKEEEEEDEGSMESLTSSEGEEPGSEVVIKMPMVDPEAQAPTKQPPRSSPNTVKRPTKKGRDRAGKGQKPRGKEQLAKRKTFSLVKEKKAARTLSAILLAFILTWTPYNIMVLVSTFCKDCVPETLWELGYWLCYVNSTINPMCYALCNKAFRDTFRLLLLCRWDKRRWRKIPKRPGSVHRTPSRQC", "assay": "cell-based", "parameters": "species or system HEK293; Fluo-4 Direct calcium mobilization on FLIPR-Tetra", "conditions": "Assay=Calcium, agonist mode, % of control agonist"}, "CHRM3": {"target": "CHRM3 (Homo sapiens, UniProt P20309)", "sequence (P20309 whole entry)": "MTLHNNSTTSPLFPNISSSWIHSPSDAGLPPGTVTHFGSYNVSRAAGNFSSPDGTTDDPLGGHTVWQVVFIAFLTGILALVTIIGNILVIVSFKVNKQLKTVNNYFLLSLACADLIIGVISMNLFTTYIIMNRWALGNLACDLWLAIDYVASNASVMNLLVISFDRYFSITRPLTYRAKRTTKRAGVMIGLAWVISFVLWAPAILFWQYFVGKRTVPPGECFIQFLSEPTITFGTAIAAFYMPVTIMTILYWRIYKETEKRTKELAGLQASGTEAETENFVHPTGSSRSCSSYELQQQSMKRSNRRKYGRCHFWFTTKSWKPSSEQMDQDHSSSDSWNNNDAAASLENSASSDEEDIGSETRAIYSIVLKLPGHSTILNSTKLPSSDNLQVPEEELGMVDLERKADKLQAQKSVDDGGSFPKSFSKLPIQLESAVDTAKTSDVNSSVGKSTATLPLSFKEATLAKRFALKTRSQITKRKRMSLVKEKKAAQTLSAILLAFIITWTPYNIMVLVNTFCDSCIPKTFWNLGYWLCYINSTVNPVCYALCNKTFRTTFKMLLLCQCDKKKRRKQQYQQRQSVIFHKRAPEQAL", "assay": "cell-based", "parameters": "species or system HEK293; Fluo-4 Direct calcium mobilization on FLIPR-Tetra", "conditions": "Assay=Calcium, agonist mode, % of control agonist"}, "CHRM5": {"target": "T4, CHRM5 (Homo sapiens, UniProt P08912)", "T4 sequence (P08912 1-532)": "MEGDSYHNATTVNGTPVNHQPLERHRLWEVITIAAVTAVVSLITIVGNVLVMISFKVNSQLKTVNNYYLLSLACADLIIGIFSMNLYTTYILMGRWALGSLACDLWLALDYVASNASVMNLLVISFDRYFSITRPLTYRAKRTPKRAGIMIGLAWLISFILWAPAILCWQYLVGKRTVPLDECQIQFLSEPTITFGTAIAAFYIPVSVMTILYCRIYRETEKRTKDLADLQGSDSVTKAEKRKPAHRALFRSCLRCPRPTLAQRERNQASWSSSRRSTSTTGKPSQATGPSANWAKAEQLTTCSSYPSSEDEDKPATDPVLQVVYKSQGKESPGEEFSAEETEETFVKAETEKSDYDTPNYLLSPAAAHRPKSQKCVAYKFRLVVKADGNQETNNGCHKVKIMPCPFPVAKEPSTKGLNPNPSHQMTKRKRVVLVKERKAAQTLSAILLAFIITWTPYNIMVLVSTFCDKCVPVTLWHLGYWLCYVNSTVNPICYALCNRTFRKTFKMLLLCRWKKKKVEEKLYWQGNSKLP", "assay": "cell-based", "parameters": "species or system HEK293; Fluo-4 Direct calcium mobilization on FLIPR-Tetra", "conditions": "Assay=Calcium, agonist mode, % of control agonist"}, "CHRM4": {"target": "T5, CHRM4 (Homo sapiens, UniProt P08173)", "T5 sequence (P08173 1-479)": "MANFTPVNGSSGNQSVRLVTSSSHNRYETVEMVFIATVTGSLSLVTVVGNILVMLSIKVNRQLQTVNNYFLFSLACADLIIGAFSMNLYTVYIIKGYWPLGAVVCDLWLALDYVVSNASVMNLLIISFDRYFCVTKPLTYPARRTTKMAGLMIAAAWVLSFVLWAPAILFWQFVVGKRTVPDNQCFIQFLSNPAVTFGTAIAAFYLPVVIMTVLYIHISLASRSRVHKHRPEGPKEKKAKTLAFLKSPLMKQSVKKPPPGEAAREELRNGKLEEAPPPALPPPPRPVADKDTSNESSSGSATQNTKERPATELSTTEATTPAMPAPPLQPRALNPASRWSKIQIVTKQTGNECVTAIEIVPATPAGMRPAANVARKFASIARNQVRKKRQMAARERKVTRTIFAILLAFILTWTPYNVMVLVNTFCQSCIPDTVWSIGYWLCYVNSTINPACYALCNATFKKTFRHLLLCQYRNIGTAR", "assay": "cell-based", "parameters": "species or system HEK293; GloSensor-22F cAMP assay, Gi-mediated inhibition of isoproterenol-stimulated cAMP; antagonist mode against agonist EC80", "conditions": "Assay=Gi, agonist mode, % of control agonist"}, "HRH3": {"target": "HRH3 (Homo sapiens, UniProt Q9Y5N1)", "sequence (Q9Y5N1 whole entry)": "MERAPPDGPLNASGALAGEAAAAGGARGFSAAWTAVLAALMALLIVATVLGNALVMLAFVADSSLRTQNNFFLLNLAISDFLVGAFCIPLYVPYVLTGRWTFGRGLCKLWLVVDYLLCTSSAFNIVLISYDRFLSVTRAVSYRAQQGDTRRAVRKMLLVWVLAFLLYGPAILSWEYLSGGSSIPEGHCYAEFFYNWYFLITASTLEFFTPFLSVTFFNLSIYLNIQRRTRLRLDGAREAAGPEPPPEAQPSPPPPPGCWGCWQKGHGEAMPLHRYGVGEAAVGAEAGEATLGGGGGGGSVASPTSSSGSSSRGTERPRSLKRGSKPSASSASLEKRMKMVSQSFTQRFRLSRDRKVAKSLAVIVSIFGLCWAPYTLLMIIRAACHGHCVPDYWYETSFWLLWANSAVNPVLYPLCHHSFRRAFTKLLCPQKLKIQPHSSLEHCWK", "assay": "cell-based", "parameters": "species or system HEK293; TRUPATH BRET2 G-protein dissociation; antagonist mode against agonist EC80", "conditions": "agonist mode"}, "HTR1A": {"target": "T6, HTR1A (Homo sapiens, UniProt P08908)", "T6 sequence (P08908 1-422)": "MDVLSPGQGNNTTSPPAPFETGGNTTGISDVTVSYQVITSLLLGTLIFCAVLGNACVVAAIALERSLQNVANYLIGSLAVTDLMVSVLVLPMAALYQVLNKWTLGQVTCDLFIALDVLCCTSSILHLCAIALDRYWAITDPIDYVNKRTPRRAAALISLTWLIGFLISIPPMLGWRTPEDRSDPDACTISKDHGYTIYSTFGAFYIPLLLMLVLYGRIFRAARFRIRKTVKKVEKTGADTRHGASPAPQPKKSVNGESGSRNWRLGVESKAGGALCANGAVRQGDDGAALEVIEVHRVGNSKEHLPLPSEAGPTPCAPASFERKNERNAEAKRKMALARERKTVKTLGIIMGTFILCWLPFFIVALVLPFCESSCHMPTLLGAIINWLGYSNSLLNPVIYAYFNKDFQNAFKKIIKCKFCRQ", "assay": "cell-based", "parameters": "species or system HEK293; TRUPATH BRET2 G-protein dissociation; antagonist mode against agonist EC80", "conditions": "agonist mode"}, "[1]": {"conditions": "HEK293, read-out: N-Desmethyl Xanomeline"}, "[2]": {"conditions": "N-Desmethyl Xanomeline, Assay=Gi2"}, "[3]": {"conditions": "N-Desmethyl Xanomeline, Assay=GoB"}}, "note": "Where two headings read alike, the source gives them in different places.", "data": [{"smiles": "CCCCCCOc1nsnc1C1=CCCNC1", "note": "[N-desmethylxanomeline]", "values": [{"measurement": "Ki", "setting": "H2", "value": 1.02, "unit": "µM"}, {"measurement": "Ki", "setting": "α2C", "value": 0.209, "unit": "µM"}, {"measurement": "Emax", "setting": "CHRM1; [1]", "value": 24.3, "unit": "%"}, {"measurement": "Emax", "setting": "CHRM3; [1]", "value": 39, "unit": "%"}, {"measurement": "Emax", "setting": "CHRM5; [1]", "value": 31.9, "unit": "%"}, {"measurement": "Emax", "setting": "CHRM4; [1]", "value": 84.4, "unit": "%"}, {"measurement": "EC50", "setting": "HRH3; N-Desmethyl Xanomeline, Assay=Gi1", "value": 10.9, "unit": "µM"}, {"measurement": "EC50", "setting": "HRH3; [2]", "value": 4.53, "unit": "µM"}, {"measurement": "EC50", "setting": "HRH3; N-Desmethyl Xanomeline, Assay=Gi3", "value": 18.7, "unit": "µM"}, {"measurement": "EC50", "setting": "HRH3; [3]", "value": 7.02, "unit": "µM"}, {"measurement": "EC50", "setting": "HTR1A; [2]", "value": 4.33, "unit": "µM"}, {"measurement": "EC50", "setting": "HTR1A; N-Desmethyl Xanomeline, Assay=GoA", "value": 1.32, "unit": "µM"}, {"measurement": "EC50", "setting": "HTR1A; [3]", "value": 2, "unit": "µM"}]}, {"smiles": "CCCCCCOc1nsnc1C1=CCCN(C)C1", "note": "[Xanomeline]", "values": [{"measurement": "Ki", "setting": "H2", "value": 0.347, "unit": "µM"}, {"measurement": "Ki", "setting": "α2C", "value": 0.158, "unit": "µM"}, {"measurement": "Emax", "setting": "CHRM1; HEK293, read-out: Xanomeline", "value": 25.6, "unit": "%"}, {"measurement": "Emax", "setting": "CHRM3; HEK293, read-out: Xanomeline", "value": 41, "unit": "%"}, {"measurement": "Emax", "setting": "CHRM5; HEK293, read-out: Xanomeline", "value": 35.4, "unit": "%"}, {"measurement": "Emax", "setting": "CHRM4; HEK293, read-out: Xanomeline", "value": 87.2, "unit": "%"}, {"measurement": "EC50", "setting": "HRH3; Xanomeline, Assay=Gi2", "value": 10.3, "unit": "µM"}, {"measurement": "EC50", "setting": "HRH3; Xanomeline, Assay=GoA", "value": 4.13, "unit": "µM"}, {"measurement": "EC50", "setting": "HRH3; Xanomeline, Assay=GoB", "value": 2.64, "unit": "µM"}, {"measurement": "EC50", "setting": "HTR1A; Xanomeline, Assay=Gi2", "value": 11.7, "unit": "µM"}, {"measurement": "EC50", "setting": "HTR1A; Xanomeline, Assay=GoA", "value": 2.34, "unit": "µM"}, {"measurement": "EC50", "setting": "HTR1A; Xanomeline, Assay=GoB", "value": 3.69, "unit": "µM"}]}]}
